The source of these data is US20230192683A1, “FUSED RING COMPOUNDS, PREPARATION METHOD THEREFOR, PHARMACEUTICAL COMPOSITIONS AND USE THEREOF” (priority 2020, published 2023).

One series addresses T1, human SSTR4 (Homo sapiens, UniProt P31391).
T1 construct: expressed in transfected cells
Description: cell-based human SSTR4 cAMP assay (agonist activity). The settings on record: SSTR4, EC50 (nM), Flp-In-CHO-SSTR4 stable pool, Forskolin-stimulated cAMP. The protocol: Purpose of test: A cell-based human SSTR4 cAMP assay was used to determine the agonistic effect of the test compound on an SSTR 4 receptor.
Cell culture and reagent preparation: cell line: Flp-In-CHO-SSTR4 stable pool; complete medium: Ham’s F-12 K + 10% FBS + 1 × penicillin-streptomycin (PS) + 600 µg/ml hygromycin B; cell seeding medium: Ham’s F-12K + 10% FBS; assay buffer: 1 × HBSS + 20 mM HEPES + 0.1%BSA + 500 uM IBMX.
The Flp-In-CHO-SSTR 4 stable pool cell line was cultured in a complete medium at 37° C., 5% CO2 until a confluency of 70% to 90%.
After TrypLE digestion, the cells were resuspended in the seeding medium and seeded in a 384-well cell culture plate (384 PE culture plate), with 7,000 cells per well, and were cultured overnight at 37° C., 5% CO2.
The cell culture plate was taken out, inverted at 200 g at room temperature for 5 s to remove the medium, then quickly filled with 15 µl of an experimental buffer to each experimental well, and centrifuged at 200 g at room temperature for 5 s.
2.5 µl of the 8x compound working solution diluted in step 3 was added to corresponding test wells, which were centrifuged at 200 g for 5 s at room temperature, and incubated at 37° C. for 10 min.
A 4 uM Forskolin working solution (8x) was prepared.
The cell plate was taken out and equilibrated to room temperature, then filled with 2.5 µl of the 8x Forskolin working solution prepared in step 6 to corresponding test wells, followed by RT at 200 g for 5 s, and left to stand at 37° C. for 30 min.
A Eu-cAMP tracer and Uliaght-anti-cAMP were freeze-thawed, the Eu-cAMP tracer was diluted 50-fold with a detection buffer, and the Uliaght-anti-cAMP was dilutd 150-fold.
10 µl of the Eu-cAMP tracer was added to all experimental wells, then 10 µl of the detection buffer was added to NC wells, and 10 µl of the Uliaght-anti-cAMP was added to the remaining experimental wells.
The reaction plate was centrifuged at 200 g for 30 s at room temperature, and after standing at 25° C. for 1 h, data was collected using Envision.
Compound EC50 was calculated using a GraphPad nonlinear fitting formula: […]
X: Compound concentration log value; Y: HTRF ratio
(Changes in cAMP serve as a functional read-out for many G protein-coupled receptors.)

Series [1] can be described thus: metabolic stability in pooled human liver microsomes. The settings on record: pH 7.4. The protocol:
(§1) Metabolic degradation of a test compound was analyzed using pooled human liver microsomes and male rat liver microsomes, respectively, at 37° C.
(§2) After pre-incubation at 37° C. for 5 min, NADPH (5 mM, 60 µL) was added to initiate a reaction. A fixed volume of the reaction mixture (30 µL) was sampled into the solution at fixed time points (0, 5, 15, 30, 60 min) to quench the reaction. After centrifugation (4000 rpm, 15 min), the supernatant (100 µL) was mixed with distilled water (100 µL) and then subjected to LC-MS/MS analysis to test the amount of the compound. A half-life was calculated using a first-order reaction kinetic equation (Ct = C0 × e^-ket, T½ = Ln2/ke).
On the technique in general: Liver microsomes are vesicles of endoplasmic reticulum, rich in cytochrome P450 enzymes.

The nature of series [2]: metabolic stability in male rat liver microsomes. The settings on record: pH 7.4. The protocol:
as §1, §2

For series [3], the system named is rat CFA pain model. Description: single-dose pharmacodynamic study in rat CFA pain model (Von Frey PWT). Type of series: in vivo. The protocol:
Each male SD rat (7-8 weeks old) was injected with 50 microliters of CFA in the center of the left hind paw. A PWT basal value test was conducted 24 hours after modeling, and the drugs were administered after randomization.
There were 8 animals in each group, and the animals were weighed and administered according to Table 4.
For all groups of animals, paw withdrawal thresholds (PWTs) of the animals were tested using Von Frey after 1 h and 3 h of single administration.

The subject of series [4] is rat CFA pain model. Description: multi-dose oral pharmacodynamic study in rat CFA pain model (Von Frey PWT). Type of series: in vivo. The protocol:
The efficacy of Compound 1a and Compound 14 in the rat CFA pain model was evaluated using a mechanical allodynia method.
SD rats, 72 males, divided into 9 groups, were purchased from Beijing Vital River Laboratory Animal Technology Co., Ltd.
The experimental animals were adaptively reared for 3 to 7 days, and 8 of them were selected as a normal control group, and the other animals were injected with 50 µL of CFA in the center of the left hind paw for modeling. 24 hours after injection, the animals were tested for paw withdrawal threshold (PWT) basal values, and were divided into groups according to the basal values, which were solvent control group, indomethacin group, Compound 1a, 10 mpk group, Compound 1a, 30 mpk group, Compound 1a, 100 mpk group, Compound 14, 3 mpk group, Compound 14, 10 mpk group, and Compound 14, 30 mpk group, with 8 animals in each group. Subsequently, the animals were weighed and administered orally according to Table 6. All the animals were tested for paw withdrawal thresholds (PWT) using Von Frey 1, 2, and 4 hours after administration to further evaluate the efficacy of the compounds of the present invention.

Structures are written as SMILES. Structures can show the parent of a compound that is named as a salt. Marks after values point to notes of the source that are not given here.

T1 sequence (P31391 whole entry): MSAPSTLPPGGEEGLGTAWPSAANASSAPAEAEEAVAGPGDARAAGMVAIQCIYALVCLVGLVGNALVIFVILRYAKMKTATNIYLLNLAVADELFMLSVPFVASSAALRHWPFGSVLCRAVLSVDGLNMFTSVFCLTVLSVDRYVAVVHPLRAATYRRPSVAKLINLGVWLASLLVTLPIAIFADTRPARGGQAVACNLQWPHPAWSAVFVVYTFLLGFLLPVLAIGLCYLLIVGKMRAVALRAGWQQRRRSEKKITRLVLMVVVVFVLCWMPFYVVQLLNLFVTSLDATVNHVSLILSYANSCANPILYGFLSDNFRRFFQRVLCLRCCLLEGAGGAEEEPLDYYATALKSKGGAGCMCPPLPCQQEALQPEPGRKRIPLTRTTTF

Molecule `CSc1nc(C(C)(C)NC(=O)[C@H]2[C@@H]3CNC[C@@H]32)n2cccc(C)c12` [Compound 17, (1R,5S,6R)-N-(2-(8-Methyl-1-(Methylthio)Imidazo[1,5-a]Pyridin-3-yl)Propan-2-yl)-3-Azabicyclo[3.1.0]Hexane-6-Carboxamide] came in with a concentration for a half-maximal effect (EC50) at human SSTR4 of 0.068 nM. For the same molecule, the half-life at 1 µM in series [1] (pooled human liver microsomes) and in series [2] (rat liver microsomes) was over 186 min throughout.

The molecule `CSc1cccn2c(C(C)(C)NC(=O)C3C4CNCC43C)ncc12` (single isomer, unassigned) [Compound 5-P1, 1-Methyl-N-(2-(8-(Methylthio)Imidazo[1,5-a]Pyridin-3-yl)Propan-2-yl)-3-Azabicyclo[3.1.0]Hexane-6-Carboxamide] came in with an EC50 at human SSTR4 of 1.25 nM.

`CC(C)(NC(=O)[C@H]1[C@@H]2CNC[C@@H]21)c1ncc2c(Sc3nccs3)cccn12` [Compound 4, (1R,5S,6R)-N-(2-(8-(Thiazol-2-Ylsulfanyl)Imidazo[1,5-a]Pyridin-3-yl)Prop-2-yl)-3-Azabicyclo[3.1.0]Hexane-6-Carboxamide]: the EC50 at human SSTR4 amounted to 36.7 nM.

`CC(C)(NC(=O)[C@H]1[C@@H]2CNC[C@@H]21)c1ncc2c(SCc3ccccc3)cccn12` [Compound 9, (1R,5S,6R)-N-(2-(8-(Benzylthio)Imidazo[1,5-a]Pyridin-3-yl)Prop-2-yl)-3-Azabicyclo[3.1.0]Hexane-6-Carboxamide] registered an EC50 on human SSTR4 of 3.42 nM.

`CC(C)(NC(=O)[C@H]1[C@@H]2CNC[C@@H]21)c1ncc2c(SCC3CCCC3)cccn12` [Compound 13, (1R,5S,6R)-N-(2-(8-((Cyclopentylmethyl)Thio)Imidazo[1,5-a]Pyridin-3-yl)Propan-2-yl)-3-Azabicyclo[3.1.0]Hexane-6-Carboxamide] came in with a concentration giving a half-maximal response (EC50) at human SSTR4 of 7.58 nM.

In the case of `CC(C)(NC(=O)[C@H]1[C@@H]2CNC[C@@H]21)c1ncc2c(SC3CCC3)cccn12` [Compound 12, (1R,5S,6R)-N-(2-(8-(Cyclobutylthio)Imidazo[1,5-a]Pyridin-3-yl)Prop-2-yl)-3-Azabicyclo[3.1.0]Hexane-6-Carboxamide], the EC50 at human SSTR4 came to 1.83 nM.

Molecule `CC(C)Sc1cccn2c(C(C)(C)NC(=O)[C@H]3[C@@H]4CNC[C@@H]43)ncc12` [Compound 7, (1R,5S,6R)-N-(2-(8-(Isopropylthio)Imidazo[1,5-a]Pyridin-3-yl)Prop-2-yl)-3-Azabicyclo[3.1.0]Hexane-6-Carboxamide] showed an EC50 at human SSTR4 of 3.29 nM.

`CC(C)(NC(=O)[C@H]1[C@@H]2CNC[C@@H]21)c1ncc2c(SCC3CCC3)cccn12` [Compound 11, (1R,5S,6R)-N-(2-(8-((Cyclobutylmethyl)Thio)Imidazo[1,5-a]Pyridin-3-yl)Propan-2-yl)-3-Azabicyclo[3.1.0]Hexane-6-Carboxamide]: on human SSTR4, the EC50 was 2.47 nM.

`CC(C)(NC(=O)[C@H]1[C@@H]2CNC[C@@H]21)c1ncc2c(SC3CCCC3)cccn12` [Compound 3, (1R,SS,6R)-N(2-(8-(Cyclopentylthio)Imidazo[1,5-a]Pyridin-3-yl)Prop-2-yl)-3-Azabicyclo[3.1.0]Hexane-6-Carboxamide] came in with a 50% effective concentration (EC50) on human SSTR4 of 10.5 nM.

`CSc1cccn2c(C(C)(C)NC(=O)C3C4CNCC43C)ncc12` (single isomer, unassigned) [Compound 5-P2, 1-methyl-N-(2-(8-(methylthio)imidazo[1,5-a]pyridin-3-yl)propan-2-yl)-3-azabicyclo[3.1.0]hexane-6-carboxamide] displayed an EC50 on human SSTR4 of 0.41 nM.

On human SSTR4, `CC(C)(NC(=O)[C@H]1[C@@H]2CNC[C@@H]21)c1ncc2c(SCC3CC3)cccn12` [Compound 8, (1R,5S,6R)-N-(2-(8-((Cyclopropylmethyl)Thio)Imidazo[1,5-a]Pyridin-3-yl)Propan-2-yl)-3-Azabicyclo[3.1.0]Hexane-6-Carboxamide] displayed an EC50 of 0.5 nM.

In turn, `CSc1cccn2c(C(C)(C)NC(=O)[C@H]3[C@@H]4CNC[C@@H]43)ncc12.Cl` [Compound 1, (1R,5S,6R)-N-(2-(8-(Methylthio)Imidazo[1,5-a]Pyridin-3-yl)Prop-2-yl)-3-Azabicyclo[3.1.0]Hexane-6-Carboxamide Hydrochloride] returned a 50% effective concentration (EC50) at human SSTR4 of 0.15 nM. In addition, the half-life at 1 µM in series [1] (microsomes) and in series [2] (microsomes) was over 186 min throughout.

`COc1ccc2c(c1)c(CC(=O)O)c(C)n2C(=O)c1ccc(Cl)cc1` [Indomethacin, reference compound]: the “Mechanical allodynia test (PWT (g), mean) Baseline” value with rat CFA pain model [3] (30 mg/kg P.O. group, baseline 24 h after CFA, before administration) came to 3.554 g. Further, in the series on rat CFA pain model [3] (30 mg/kg P.O., 1 hour after single administration), the “Mechanical allodynia test (PWT (g), mean) 1 hour” value is recorded as 4.448 g. For the same molecule, the “inhibition of CFA-induced mechanical allodynia (in words)” value is on record as “significantly inhibit” with rat CFA pain model [3] (30 mg/kg P.O., 3 hours after administration, FIG. 1); “significantly inhibited” in the series on rat CFA pain model [4] (30 mg/kg oral, 2 and 4 hours after administration, FIG. 2). Also, the “Mechanical allodynia test (PWT (g), mean) 3 hours” value in the series with rat CFA pain model [3] (30 mg/kg P.O., 3 hours after single administration) is 10.360 **** #### g. Moreover, the “Paw withdrawal threshold (PWT(g)) (average) 0 hours” value with rat CFA pain model [4] (30 mg/kg oral group, 0 hours) is listed as 3.012 g. In addition, the “Paw withdrawal threshold (PWT(g)) (average) 1 hour” value with rat CFA pain model [4] (30 mg/kg oral, 1 hour) is recorded as 4.461 g. Further, the “Paw withdrawal threshold (PWT(g)) (average) 2 hours” value with rat CFA pain model [4] (30 mg/kg oral, 2 hours) was 7.486 ** g. Besides, in the series on rat CFA pain model [4] (30 mg/kg oral, 4 hours), the “Paw withdrawal threshold (PWT(g)) (average) 4 hours” value is 6.813 ** g.

Consider `CSc1ccccc1C(C)(C)NC(=O)[C@H]1[C@@H]2CNC[C@@H]21` [Compound 16, (1R,5S,6R)-N-(2-(2-(Methylthio)Phenyl)Propan-2-yl)-3-Azabicyclo[3.1.0]Hexane-6-Carboxamide], for which, at human SSTR4, the concentration for a half-maximal effect (EC50) was determined as 1.25 nM.

Take `CC(C)(CSc1ccccc1C(F)(F)F)NC(=O)[C@H]1[C@@H]2CNC[C@@H]21` [Compound 2, (1R,5S,6R)-N-(2-Methyl-1-((2-(Trifluoromethyl)Phenyl)Thio)Prop-2-yl)-3-Azabicyclo[3.1.0]Hexane-6-Carboxamide Formate]: the EC50 at human SSTR4 is 6.77 nM.

On to `CSc1cccc2c(C(C)(C)NC(=O)[C@H]3[C@@H]4CNC[C@@H]43)n[nH]c12` [Compound 15, (1R,5S,6R)-N-(2-(7-(Methylthio)-1H-Indazol-3-yl)Propan-2-yl)-3-Azabicyclo[3.1.0]Hexane-6-Carboxamide], for which, at human SSTR4, the concentration giving a half-maximal response (EC50) is 0.046 nM. In addition, the half-life at 1 µM in series [1] (pooled human liver microsomes) and in series [2] (rat liver microsomes) was over 186 min throughout.

Molecule `CCSc1cccn2c(C(C)(C)NC(=O)[C@H]3[C@@H]4CNC[C@@H]43)ncc12` [Compound 6, (1R,5S,6R)-N-(2-(8-(Ethylthio)Imidazo[1,5-a]Pyridin-3-yl)Prop-2-yl)-3-Azabicyclo[3.1.0]Hexane-6-Carboxamide Hydrochloride] registered an EC50 on human SSTR4 of 0.73 nM.

In the case of `CC(C)CSc1cccn2c(C(C)(C)NC(=O)[C@H]3[C@@H]4CNC[C@@H]43)ncc12` [Compound 10, (1R,5S,6R)-N-(2-(8-(Isobutylthio)Imidazo[1,5-a]Pyridin-3-yl)Prop-2-yl)-3-Azabicyclo[3.1.0]Hexane-6-Carboxamide], at human SSTR4, a half-maximal response (EC50) required 7.89 nM.

As a reminder, the EC50 is the concentration that produces a half-maximal response. A high value points to lower potency in that assay. As a reminder, the half-life is how long it takes for the measured level to halve. The low end stands for fast loss, the high end for slow loss.
